The values that follow are results of earlier work, collected in patent US20050220810A1, “Anti-aging preparation” (Shiseido Company, Ltd., priority 2002, published 2005).

The series relates to vascular endothelial cell HMVEC. The settings on record: general statement on positive controls of TSP-1 induction; no test described.

Take “bFGF: fibroblast growth factor, a positive control of the TSP-1 inducing substance”: the “induction of cell death in vascular endothelial cells” value is on record as “does not induce cell death”.
